Laboratory results: ChEMBL document CHEMBL1201862, “PubChem BioAssay data set” (2004)
Active and inactive are the calls of the source.

What was measured:
[1] = molecular target: T1, Endoribonuclease toxin MazF (Escherichia coli K-12, UniProt P0AE70); assay: substrate-only fluorescence increase artefacts – biochemical, single-stranded RNase substrate, counter-screen for MazEF activator project, dose response (AID 588502); format: functional
T1 sequence (P0AE70 whole entry): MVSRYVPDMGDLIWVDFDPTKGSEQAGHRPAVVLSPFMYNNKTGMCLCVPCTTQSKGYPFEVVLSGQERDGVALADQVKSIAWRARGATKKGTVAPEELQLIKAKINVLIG

[2] = molecular target: T1, Endoribonuclease toxin MazF; assay: activation of MazEF endoribonuclease cleavage – biochemical, fluorescence, single-stranded RNA substrate, uHTS hits, dose response (AID 588481); format: functional
Troponin, cardiac muscle = Troponin, cardiac muscle (Homo sapiens, UniProt P19429+P45379+P63316); assay: Fluorescence-based biochemical high throughput dose response assay for activators of the calcium sensitivity of cardiac Regulated Thin Filaments (RTF). [Related pubchem assays (depositor defined):AID493008, AID493018, AID504382, AID504383]; format: protein-complex assay
[3] = molecular target: T2, Corticotropin-releasing factor receptor 2/Corticotropin-releasing factor-binding protein (Homo sapiens, UniProt P24387+Q13324); assay: activators of CRF receptor 2 with binding protein – uHTS hits, confirmation (AID 602473); format: functional; settings: read-out: EC50_Mean
T2 sequence (Q13324 whole entry): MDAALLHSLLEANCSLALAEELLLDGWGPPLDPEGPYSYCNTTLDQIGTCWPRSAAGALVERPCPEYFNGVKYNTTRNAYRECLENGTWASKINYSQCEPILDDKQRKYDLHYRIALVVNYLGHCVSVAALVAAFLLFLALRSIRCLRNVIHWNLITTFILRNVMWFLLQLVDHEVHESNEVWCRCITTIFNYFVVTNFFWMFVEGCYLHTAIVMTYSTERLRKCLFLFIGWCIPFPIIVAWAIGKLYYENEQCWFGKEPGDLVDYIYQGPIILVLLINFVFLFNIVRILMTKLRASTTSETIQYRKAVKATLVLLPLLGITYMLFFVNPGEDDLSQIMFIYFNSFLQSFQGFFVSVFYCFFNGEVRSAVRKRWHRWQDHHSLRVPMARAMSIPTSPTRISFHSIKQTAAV
T2 sequence (P24387 whole entry): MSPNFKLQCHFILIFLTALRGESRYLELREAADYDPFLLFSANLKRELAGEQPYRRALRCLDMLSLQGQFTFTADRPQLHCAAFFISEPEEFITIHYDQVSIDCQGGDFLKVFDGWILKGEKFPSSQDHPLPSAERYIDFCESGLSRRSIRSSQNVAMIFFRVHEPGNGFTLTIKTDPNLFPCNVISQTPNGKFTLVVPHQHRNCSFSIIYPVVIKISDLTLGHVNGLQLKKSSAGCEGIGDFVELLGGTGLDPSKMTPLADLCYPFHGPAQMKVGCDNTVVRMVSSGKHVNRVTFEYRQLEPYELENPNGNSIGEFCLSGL

Cytochrome P450 2C9 = Cytochrome P450 2C9 (Homo sapiens, UniProt P11712)
Cytochrome P450 3A4 = Cytochrome P450 3A4 (Homo sapiens, UniProt P08684);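 note: CYP3A4 tested as one member of a cytochrome P450 panel screen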
Cytochrome P450 2D6 = Cytochrome P450 2D6 (Homo sapiens, UniProt P10635);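 note: CYP2D6 member of a cytochrome P450 panel assay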
Hexokinase-1 = molecular target: T3, Hexokinase-1 (Homo sapiens, UniProt P19367); assay: HK1 enzyme activation by HKDC1 hits – biochemical, selectivity assay for HKDC1 activator project, dose response (AID 504762); format: functional
T3 sequence (P19367 whole entry): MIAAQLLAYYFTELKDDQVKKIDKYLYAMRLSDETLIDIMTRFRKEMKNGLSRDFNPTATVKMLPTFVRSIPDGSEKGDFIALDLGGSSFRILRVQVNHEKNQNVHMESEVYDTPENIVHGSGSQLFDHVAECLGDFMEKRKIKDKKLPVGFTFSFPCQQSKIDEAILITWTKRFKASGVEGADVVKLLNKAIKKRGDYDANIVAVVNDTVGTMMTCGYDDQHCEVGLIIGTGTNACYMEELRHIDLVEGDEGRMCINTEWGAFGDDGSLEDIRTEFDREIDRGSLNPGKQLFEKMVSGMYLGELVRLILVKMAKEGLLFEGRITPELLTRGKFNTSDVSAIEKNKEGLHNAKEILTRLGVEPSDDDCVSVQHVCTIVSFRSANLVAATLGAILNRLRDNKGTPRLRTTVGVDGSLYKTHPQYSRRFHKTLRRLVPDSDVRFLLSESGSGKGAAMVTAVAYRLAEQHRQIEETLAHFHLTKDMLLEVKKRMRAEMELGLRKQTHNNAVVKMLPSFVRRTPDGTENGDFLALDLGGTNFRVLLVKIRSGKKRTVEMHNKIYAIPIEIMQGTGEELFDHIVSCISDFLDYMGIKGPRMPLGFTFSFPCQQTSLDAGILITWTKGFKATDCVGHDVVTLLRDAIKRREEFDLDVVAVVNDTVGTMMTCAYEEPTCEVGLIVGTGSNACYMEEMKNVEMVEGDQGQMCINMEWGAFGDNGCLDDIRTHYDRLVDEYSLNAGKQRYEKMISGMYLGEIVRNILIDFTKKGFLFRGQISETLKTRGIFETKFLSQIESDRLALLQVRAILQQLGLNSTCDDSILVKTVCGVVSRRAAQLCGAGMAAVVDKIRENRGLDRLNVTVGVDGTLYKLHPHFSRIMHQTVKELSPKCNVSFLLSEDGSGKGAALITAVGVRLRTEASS

Hexokinase HKDC1 = molecular target: T4, Hexokinase HKDC1 (Homo sapiens, UniProt Q2TB90); assay: activation of HKDC1 glucose phosphorylation – biochemical, W721R variant, dose response (AID 504730); format: functional
T4 sequence (Q2TB90 whole entry): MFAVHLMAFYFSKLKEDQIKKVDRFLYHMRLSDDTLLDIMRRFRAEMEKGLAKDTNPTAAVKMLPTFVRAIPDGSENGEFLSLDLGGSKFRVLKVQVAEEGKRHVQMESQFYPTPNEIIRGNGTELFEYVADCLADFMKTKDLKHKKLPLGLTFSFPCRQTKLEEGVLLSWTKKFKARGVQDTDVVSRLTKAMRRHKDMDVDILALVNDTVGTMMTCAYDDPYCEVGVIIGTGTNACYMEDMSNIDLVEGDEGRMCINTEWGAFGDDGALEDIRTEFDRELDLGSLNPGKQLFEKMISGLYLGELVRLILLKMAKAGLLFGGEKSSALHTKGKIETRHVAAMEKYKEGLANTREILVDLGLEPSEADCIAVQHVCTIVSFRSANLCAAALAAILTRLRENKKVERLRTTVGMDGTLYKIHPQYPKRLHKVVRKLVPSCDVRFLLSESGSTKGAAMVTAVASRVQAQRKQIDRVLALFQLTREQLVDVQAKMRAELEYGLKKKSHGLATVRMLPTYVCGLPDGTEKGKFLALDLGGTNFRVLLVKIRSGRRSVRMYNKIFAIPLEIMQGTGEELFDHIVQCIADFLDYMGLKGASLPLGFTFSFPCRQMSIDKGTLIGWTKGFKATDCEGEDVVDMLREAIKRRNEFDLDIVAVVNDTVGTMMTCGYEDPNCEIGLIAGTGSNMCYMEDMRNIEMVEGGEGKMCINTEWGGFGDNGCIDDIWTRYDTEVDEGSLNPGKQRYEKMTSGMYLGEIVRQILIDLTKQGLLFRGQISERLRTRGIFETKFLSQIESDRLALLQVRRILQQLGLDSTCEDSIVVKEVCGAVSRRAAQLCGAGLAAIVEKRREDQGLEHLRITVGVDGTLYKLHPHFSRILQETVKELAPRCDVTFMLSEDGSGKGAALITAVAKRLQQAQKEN

Phosphomannomutase 2 = molecular target: T5, Phosphomannomutase 2 (Homo sapiens, UniProt O15305); assay: Counter screen SAR assay for PMM2 inhibitors via a fluorescence intensity assay. [Related pubchem assays (depositor defined):AID1545, AID1574]
T5 sequence (O15305 whole entry): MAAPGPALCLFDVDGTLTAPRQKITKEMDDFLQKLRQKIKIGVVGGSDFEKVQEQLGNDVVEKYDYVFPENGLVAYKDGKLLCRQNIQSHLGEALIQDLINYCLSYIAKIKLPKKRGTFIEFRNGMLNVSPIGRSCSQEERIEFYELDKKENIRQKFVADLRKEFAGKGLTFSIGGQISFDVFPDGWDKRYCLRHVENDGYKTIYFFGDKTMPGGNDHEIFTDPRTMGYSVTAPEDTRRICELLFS

[4] = molecular target: T6, Mannose-6-phosphate isomerase (Homo sapiens, UniProt P34949); assay: phosphomannose isomerase inhibition – biochemical, fluorescence intensity, confirmation (AID 1535)
T6 sequence (P34949 whole entry): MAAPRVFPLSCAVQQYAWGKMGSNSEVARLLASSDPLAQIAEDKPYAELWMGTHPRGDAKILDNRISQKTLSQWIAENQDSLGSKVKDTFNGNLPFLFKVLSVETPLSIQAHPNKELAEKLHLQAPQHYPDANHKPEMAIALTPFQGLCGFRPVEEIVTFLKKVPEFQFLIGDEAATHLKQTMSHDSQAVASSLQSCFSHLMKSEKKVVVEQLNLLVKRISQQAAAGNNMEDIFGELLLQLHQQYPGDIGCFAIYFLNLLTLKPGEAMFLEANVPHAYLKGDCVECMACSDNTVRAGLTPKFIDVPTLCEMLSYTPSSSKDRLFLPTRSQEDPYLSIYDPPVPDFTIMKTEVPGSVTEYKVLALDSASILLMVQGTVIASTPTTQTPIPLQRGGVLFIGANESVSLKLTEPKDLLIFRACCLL

Cytochrome P450 1A2 = molecular target: T7, Cytochrome P450 1A2 (Homo sapiens, UniProt P05177);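 note: PubChem cytochrome P450 panel assay, CYP1A2 panel member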
T7 sequence (P05177 whole entry): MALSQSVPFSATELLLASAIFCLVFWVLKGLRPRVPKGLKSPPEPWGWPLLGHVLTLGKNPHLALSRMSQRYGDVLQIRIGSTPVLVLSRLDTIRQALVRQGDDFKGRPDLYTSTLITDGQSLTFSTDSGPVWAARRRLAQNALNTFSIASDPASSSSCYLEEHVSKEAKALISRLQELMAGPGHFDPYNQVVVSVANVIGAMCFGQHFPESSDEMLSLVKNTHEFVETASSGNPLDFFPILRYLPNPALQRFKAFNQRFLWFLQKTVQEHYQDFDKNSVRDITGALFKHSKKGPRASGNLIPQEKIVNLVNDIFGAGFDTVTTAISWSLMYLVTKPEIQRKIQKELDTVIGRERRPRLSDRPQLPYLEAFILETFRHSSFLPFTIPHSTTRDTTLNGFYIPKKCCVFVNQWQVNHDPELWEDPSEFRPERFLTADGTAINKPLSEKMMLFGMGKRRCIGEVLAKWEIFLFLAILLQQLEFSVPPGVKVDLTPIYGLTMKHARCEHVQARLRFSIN

Cytochrome P450 2C19 = Cytochrome P450 2C19 (Homo sapiens, UniProt P33261); assay: Cytochrome panel assay with activity outcomes. Panel member name: p450-cyp2c19 Compounds with AC50 equal or less than 10 uM are considered active; format: functional; settings: read-out: AC50
Vero = assay: cells; format: functional; settings: Chlorocebus sabaeus

Chain of Cytochrome P450 2C9 (P11712 whole entry): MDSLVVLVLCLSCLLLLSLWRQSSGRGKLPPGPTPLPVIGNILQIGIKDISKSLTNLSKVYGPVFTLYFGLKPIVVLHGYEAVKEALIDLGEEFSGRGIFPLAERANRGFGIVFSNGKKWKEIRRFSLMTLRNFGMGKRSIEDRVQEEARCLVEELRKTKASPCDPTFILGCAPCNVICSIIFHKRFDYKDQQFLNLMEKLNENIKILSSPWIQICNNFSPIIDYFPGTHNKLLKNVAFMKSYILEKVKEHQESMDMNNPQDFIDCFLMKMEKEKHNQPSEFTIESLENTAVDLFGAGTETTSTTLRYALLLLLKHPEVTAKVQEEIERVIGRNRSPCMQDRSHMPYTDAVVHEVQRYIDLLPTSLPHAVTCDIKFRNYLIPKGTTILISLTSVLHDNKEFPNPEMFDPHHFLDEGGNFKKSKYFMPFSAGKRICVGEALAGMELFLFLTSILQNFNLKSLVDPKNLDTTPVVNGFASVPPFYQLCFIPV
Chain of Cytochrome P450 3A4 (P08684 whole entry): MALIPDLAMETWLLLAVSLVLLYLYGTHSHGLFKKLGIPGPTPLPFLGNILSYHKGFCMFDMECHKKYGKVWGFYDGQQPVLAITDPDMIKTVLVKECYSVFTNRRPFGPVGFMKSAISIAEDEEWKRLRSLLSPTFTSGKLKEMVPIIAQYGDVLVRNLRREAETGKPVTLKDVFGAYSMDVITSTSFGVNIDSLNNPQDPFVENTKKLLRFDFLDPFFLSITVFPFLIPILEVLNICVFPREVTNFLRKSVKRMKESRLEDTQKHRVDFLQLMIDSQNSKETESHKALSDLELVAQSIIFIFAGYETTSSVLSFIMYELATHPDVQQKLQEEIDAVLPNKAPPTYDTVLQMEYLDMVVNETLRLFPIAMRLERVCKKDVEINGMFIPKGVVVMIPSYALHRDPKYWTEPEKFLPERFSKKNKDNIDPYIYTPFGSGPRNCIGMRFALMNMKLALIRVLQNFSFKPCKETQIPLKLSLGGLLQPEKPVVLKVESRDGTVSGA
Chain of Cytochrome P450 2D6 (P10635 whole entry): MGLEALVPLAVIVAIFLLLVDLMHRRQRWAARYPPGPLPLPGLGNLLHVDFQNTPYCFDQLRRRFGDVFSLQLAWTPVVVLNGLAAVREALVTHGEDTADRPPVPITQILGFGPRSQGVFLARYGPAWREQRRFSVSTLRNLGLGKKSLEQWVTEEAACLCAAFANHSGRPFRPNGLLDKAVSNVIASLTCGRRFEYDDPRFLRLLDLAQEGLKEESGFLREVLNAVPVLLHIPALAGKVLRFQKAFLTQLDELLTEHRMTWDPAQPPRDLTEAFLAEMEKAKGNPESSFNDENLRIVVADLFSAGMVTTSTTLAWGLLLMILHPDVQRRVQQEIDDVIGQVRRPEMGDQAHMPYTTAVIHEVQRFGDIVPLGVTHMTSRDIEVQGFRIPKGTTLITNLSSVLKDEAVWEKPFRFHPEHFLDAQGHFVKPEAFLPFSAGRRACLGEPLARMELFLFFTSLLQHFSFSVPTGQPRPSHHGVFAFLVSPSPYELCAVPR
Chain of Cytochrome P450 2C19 (P33261 whole entry): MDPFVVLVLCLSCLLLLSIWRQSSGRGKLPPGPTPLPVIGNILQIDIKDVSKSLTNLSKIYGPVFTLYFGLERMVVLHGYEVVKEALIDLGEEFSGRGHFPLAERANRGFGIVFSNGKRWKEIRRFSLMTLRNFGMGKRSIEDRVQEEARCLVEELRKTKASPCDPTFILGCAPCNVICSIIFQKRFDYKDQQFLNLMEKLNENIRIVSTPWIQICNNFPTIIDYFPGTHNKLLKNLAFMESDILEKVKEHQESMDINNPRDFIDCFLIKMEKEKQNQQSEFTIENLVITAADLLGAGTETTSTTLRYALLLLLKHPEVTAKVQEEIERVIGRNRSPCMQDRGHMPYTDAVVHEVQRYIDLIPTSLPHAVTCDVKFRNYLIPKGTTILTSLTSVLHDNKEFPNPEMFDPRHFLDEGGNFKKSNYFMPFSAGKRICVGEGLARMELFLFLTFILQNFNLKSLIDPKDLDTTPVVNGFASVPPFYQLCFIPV

How did the EC50 [1] turn out when `COc1ccc(OC)c(/C=C2\N=C(c3ccccc3)OC2=O)c1` was run?
Its EC50 is 39.1 µM (inactive).

And the EC50 [2]?
The EC50 was > 99 µM (inactive).

And the EC50 (Troponin, cardiac muscle)?
The EC50 was 2.58 µM (active).

And the EC50 [3]?
The EC50 was 2.29 µM (active).

With `Cc1cc2cc(CNC(=O)CC(C)C)ccc2n1C` as the compound, how does the AC50 (Cytochrome P450 2C9) read?
Its AC50 is “inconclusive”.

What about the AC50 (Cytochrome P450 3A4) of the same compound?
Its AC50 is 15.8 µM (inconclusive).

`COc1ccc(OC)c(S(=O)(=O)N2CCC(C(=O)NCCc3ccccc3)CC2)c1` was tested. Which AC50 (Cytochrome P450 2C9) did it give?
The AC50 was “inconclusive”.

What about the AC50 (Cytochrome P450 3A4) of the same compound?
Its AC50 is 39.8 µM (inconclusive).

What about the AC50 (Cytochrome P450 2D6) of the same compound?
Its AC50 is 2.24 µM (inconclusive).

Which results are given for `CCOC(=O)c1c(C)[nH]c(C2=NN=C(Nc3ccccc3)SC2)c1C`?
EC50 (Hexokinase-1): 18.2 µM (active); EC50 (Hexokinase HKDC1): 24.3 µM (inactive)

How did the IC50 (Phosphomannomutase 2) turn out when `Cc1cc2n(n1)SC(Nc1cccc3ccccc13)N2` (centres undefined) was run?
Its IC50 is > 100 µM (inactive).

What about the IC50 [4] of the same compound?
The IC50 was > 50 µM (inactive).

`COC(=O)c1ccccc1NC(=O)C(CCS(C)(=O)=O)NC(C)=O` (centres undefined) was tested. Which AC50 (Cytochrome P450 1A2) did it give?
The AC50 was 20 µM (inconclusive).

And the AC50 (Cytochrome P450 2C9)?
Its AC50 is “inconclusive”.

And the AC50 (Cytochrome P450 2C19)?
The AC50 was 39.8 µM (inconclusive).

For `Cn1c(SSc2ccc(-c3cccnc3)n2C)ccc1-c1cccnc1`, which CC50 (Vero) is on record?
The CC50 was 16.8 µM (active).

What about the EC50 (Hexokinase-1) of the same compound?
Its EC50 is 14.2 µM (active).

What about the EC50 (Hexokinase HKDC1) of the same compound?
The EC50 was 14.8 µM (active).
